Data as given in PubChem BioAssay (NCI).
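1) Cells in 96-well plates. 2) Compound, 48 h, 5 concentrations. 3) Linear interpolation between surrounding doses. 4) Unreached endpoint = highest concentration. GI50 is the concentration that inhibits growth by half. TGI: total growth inhibition.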

How the values were obtained:
Assay in all cases: inhibition of tumour cell growth, NCI panel, 48 h
[1] = test system: SF-295 CNS
[2] = test system: MDA-MB-435
[3] = test system: SK-MEL-5 melanoma
[4] = test system: CCRF-CEM leukemia
[5] = test system: SF-268 CNS
[6] = test system: SW-620 colon
[7] = test system: SK-MEL-28 melanoma
[8] = test system: 786-0 renal
[9] = test system: OVCAR-3 ovarian
[10] = test system: TK-10 renal

SMILES | GI50 [1] [µM] | TGI [1] [µM] | GI50 [2] [µM] | TGI [2] [µM] | GI50 [3] [µM] | TGI [3] [µM] | GI50 [4] [µM] | TGI [4] [µM] | GI50 [5] [µM] | TGI [5] [µM] | GI50 [6] [µM] | TGI [6] [µM] | GI50 [7] [µM] | TGI [7] [µM] | GI50 [8] [µM] | TGI [8] [µM] | GI50 [9] [µM] | TGI [9] [µM] | GI50 [10] [µM] | TGI [10] [µM]
C[C@H](Nc1cc(Cl)nc2c1cnn2[C@@H]1O[C@H](COP(=O)(O)CP(=O)(O)O)[C@@H](O)[C@H]1O)c1ccccc1F | > 100 | > 100 | > 100 | > 100 | > 100 | > 100 | > 100 | > 100 | > 100 | > 100 | > 100 | > 100 | > 100 | > 100 | > 100 | > 100 | > 100 | > 100 | > 100 | > 100
COc1ccccc1Nc1ncc(-c2ccccc2)o1 | > 25 | > 25 | > 25 | > 25 | > 25 | > 25 | > 25 | > 25 | > 25 | > 25 | > 25 | > 25 | > 25 | > 25 | > 25 | > 25 | > 25 | > 25 | > 25 | > 25
Cc1ccc2c(C3C(C#N)=C(N)Oc4cc5ccccc5cc43)cc(=O)oc2c1 (stereo not given) | 0.533 | > 100 | 0.286 | 1.07 | 0.856 | 19.9 | 0.976 | > 100 | 3.07 | > 100 | 0.736 | > 100 | 12.3 | > 100 | 1.83 | > 100 | 0.375 | 10.7 | 17.6 | > 100
CCN(Cc1ccc(F)cc1)c1ccc(CO)c(Br)c1 | 0.148 | 2.3 | 19.4 | 49.6 | 3.42 | 19.6 | 14.6 | 43.9 | 22.6 | > 56.3 | 0.475 | > 41.2 | 15 | 50.6 | 5.85 | 31.1 | 0.238 | 0.868 | 0.021 | 0.101
CCOC(=O)c1c(-c2ccc(OC)cc2)c(C#N)c2c(C#N)c(N)nn2c1N | 2.98 | 32.9 | 0.613 | 2.89 | 1.78 | 4.41 | 2.46 | > 100 | 5.39 | 73.7 | 5.62 | > 100 | 5.41 | > 100 | 3.85 | 23.3 | 3.28 | 14.2 | 16.4 | 69.2
C[C@H]1CN[C@@H]2[C@@H](C)[C@H]3[C@@H](C[C@H]4[C@@H]5CC[C@H]6C[C@@H](N)CC[C@]6(C)[C@H]5CC[C@]34C)O[C@@]2(O)C1 | – | 10.3 | – | 3.71 | – | 10.4 | – | 4.27 | – | 7.15 | – | 6.23 | – | 4.23 | – | 3.66 | – | 5.96 | – | 11.7
CN(C)CCC(=O)C(=Cc1ccc(O)cc1)C(=O)CCN(C)C | > 100 | > 100 | > 100 | > 100 | > 100 | > 100 | 43.4 | > 100 | > 100 | > 100 | 67.2 | > 100 | > 100 | > 100 | > 100 | > 100 | > 100 | > 100 | > 100 | > 100
CN1CC[C@@H](c2c(O)cc(O)c3c(=O)cc(-c4ccc(C(F)(F)F)cc4Cl)oc23)[C@@H]1CO | 16.7 | 36.4 | 10 | 23 | 15.4 | 30.7 | 23.4 | 70.2 | 15.2 | 39.6 | 14.7 | 31.5 | 14.4 | 32.2 | 13.3 | 31.9 | 17 | 46.9 | 14.7 | 43.5
